Results from US9409884B2 (Rigel Pharmaceuticals, Inc., priority 2012, dated 2016).

Target: AMPK
Experiment: AMPK activation, enzyme-linked immunosorbent assay
Format: biochemical
Conditions: Table 14, compounds of Table 7
Summary of the method: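 AMPK activation by test compounds was measured by enzyme-linked immunosorbent assay.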

SMILES: CC(=O)c1ccc(Oc2ccc(NC(=O)c3ccc(C(=O)N4CCN(Cc5ccc(S(=O)(=O)N6CCCC6)cc5)CC4)nc3)cn2)cc1 [Compound 7-83, N-(6-(4-acetylphenoxy)pyridin-3-yl)-6-(4-(4-(pyrrolidin-1-ylsulfonyl)benzyl)piperazine-1-carbonyl)nicotinamide]
- EC50: 1000 to 10000 nM

SMILES: COc1ccc(C(=O)C2CCN(C(=O)c3ccc(C(=O)NC4CCN(Cc5ccc(C#N)cc5)CC4(C)C)cn3)CC2)cc1 (stereo not drawn) [Compound 7-84, N-(1-(4-cyanobenzyl)-3,3-dimethylpiperidin-4-yl)-6-(4-(4-methoxybenzoyl)piperidine-1-carbonyl)nicotinamide]
- EC50: < 1000 nM

SMILES: COc1ccc(C(=O)C2CCN(C(=O)c3ccc(C(=O)NC4CCN(Cc5ccc(OC(F)(F)F)cc5)CC4(C)C)cn3)CC2)cc1 (stereo not drawn) [Compound 7-85, N-(3,3-dimethyl-1-(4-(trifluoromethoxy)benzyl)piperidin-4-yl)-6-(4-(4-methoxybenzoyl)piperidine-1-carbonyl)nicotinamide]
- EC50: < 1000 nM

SMILES: COc1ccc(C(=O)C2CCN(C(=O)c3ccc(C(=O)NC4CCN(Cc5ccc(C#N)c(F)c5)CC4(C)C)cn3)CC2)cc1 (stereo not drawn) [Compound 7-86, N-(1-(4-cyano-3-fluorobenzyl)-3,3-dimethylpiperidin-4-yl)-6-(4-(4-methoxybenzoyl)piperidine-1-carbonyl)nicotinamide]
- EC50: < 1000 nM

SMILES: COc1ccc(C(=O)C2CCN(C(=O)c3ccc(C(=O)NC4CCN(Cc5ccc(F)c(OC)c5)CC4(C)C)cn3)CC2)cc1 (stereo not drawn) [Compound 7-87, N-(1-(4-fluoro-3-methoxybenzyl)-3,3-dimethylpiperidin-4-yl)-6-(4-(4-methoxybenzoyl)piperidine-1-carbonyl)nicotinamide]
- EC50: 1000 to 10000 nM

SMILES: COc1ccc(C(=O)C2CCN(C(=O)c3ccc(C(=O)NC4CCN(Cc5ccc(C#N)c(OC)c5)CC4(C)C)cn3)CC2)cc1 (stereo not drawn) [Compound 7-89, N-(1-(4-cyano-3-methoxybenzyl)-3,3-dimethylpiperidin-4-yl)-6-(4-(4-methoxybenzoyl)piperidine-1-carbonyl)nicotinamide]
- EC50: 1000 to 10000 nM

SMILES: COc1ccc(C(=O)C2CCN(C(=O)c3ccc(C(=O)NC4CCN(Cc5ccc(OC)c(C#N)c5)CC4(C)C)cn3)CC2)cc1 (stereo not drawn) [Compound 7-90, N-(1-(3-cyano-4-methoxybenzyl)-3,3-dimethylpiperidin-4-yl)-6-(4-(4-methoxybenzoyl)piperidine-1-carbonyl)nicotinamide]
- EC50: 1000 to 10000 nM

SMILES: CCNS(=O)(=O)c1ccc(CN2CCN(C(=O)c3ccc(C(=O)N4CCC(C(=O)c5ccc(OC)cc5)CC4)nc3)CC2)cc1 [Compound 7-91, N-ethyl-4-((4-(6-(4-(4-methoxybenzoyl)piperidine-1-carbonyl)nicotinoyl)piperazin-1-yl)methyl)benzenesulfonamide]
- EC50: 10000 to 20000 nM

SMILES: CCNS(=O)(=O)c1ccc(CN2CCN(C(=O)c3ccc(C(=O)Nc4ccc(Oc5ccc(C(C)=O)cc5)nc4)cn3)CC2)cc1 [Compound 7-92, N-(6-(4-acetylphenoxy)pyridin-3-yl)-6-(4-(4-(N-ethylsulfamoyl)benzyl)piperazine-1-carbonyl) nicotinamide]
- EC50: 1000 to 10000 nM

SMILES: COc1ccc(C(=O)C2CCN(C(=O)c3ccc(C(=O)NC4CCN(Cc5ccc(C#N)cc5)C[C@@H]4C)cn3)CC2)cc1 (stereo partly drawn) [Compound 7-93, N-((3,4-cis)-1-(4-cyanobenzyl)-3-methylpiperidin-4-yl)-6-(4-(4-methoxybenzoyl)piperidine-1-carbonyl)nicotinamide]
- EC50: < 1000 nM

SMILES: COc1ccc(C(=O)C2CCN(C(=O)c3ccc(C(=O)NC4CCN(Cc5ccc(OC(F)(F)F)cc5)C[C@@H]4C)cn3)CC2)cc1 (stereo partly drawn) [Compound 7-94, 6-(4-(4-methoxybenzoyl)piperidine-1-carbonyl)-N-((3,4-cis)-3-methyl-1-(4-(trifluoromethoxy)benzyl)piperidin-4-yl)nicotinamide]
- EC50: < 1000 nM

SMILES: COc1ccc(C(=O)C2CCN(C(=O)c3ccc(C(=O)NC4CCN(Cc5ccc(OC)c(F)c5)CC4(C)C)cn3)CC2)cc1 (stereo not drawn) [Compound 7-95, N-(1-(3-fluoro-4-methoxybenzyl)-3,3-dimethylpiperidin-4-yl)-6-(4-(4-methoxybenzoyl)piperidine-1-carbonyl)nicotinamide]
- EC50: < 1000 nM
